Assay results as given in patent US10842795B1, “Chemosensitization of resistant Pseudomonas aeruginosa by synthetically related compounds” (King Abdulaziz University, priority 2020, dated 2020).
Entries after “also recorded” stand apart in the source; their conditions may differ.

Tests used:
[1] = system: Pseudomona aeruginosa ATCC 27853; experiment: Cup diffusion (agar plate diffusion) assay of ciprofloxacin chemosensitization; assay type: cell-based, Pseudomonas aeruginosa; conditions: 200 μM compound with CPX, MDR-Pa, in words
Procedure: ^1H NMR (400 MHz, DMSO-d6) δ 9.88 (s, 1H), 7.66 (dd, J=1.51, 7.78 Hz, 2H), 7.53-7.62 (m, 3H), 7.43-7.51 (m, 3H), 7.37-7.43 (m, 2H), 7.29-7.37 (m, 1H), 7.07-7.12 (m, 2H), 6.95-7.02 (m, 1H), 6.87 (d, J=15.81 Hz, 1H), 4.19 (q, J=7.11 Hz, 2H), 1.25 (t, J=7.15 Hz, 3H). Biological Screening Efflux Pump Inhibition (EPI) Screening Methodology: Bacterial isolate. Pseudomona aeruginosa ATCC 27853 stored at −70° C. in Trypticase soy broth supplemented with 10% glycerol was recovered for testing. Tests performed. Cup diffusion assay was performed to assess interaction between Ciprofloxacin CPX and 24 compounds. CPX minimum inhibitory concentrations (MICs) were determined alone and in the presence of each compound at concentrations ranging from 2000 to 62.5 μg/mL against P. aeruginosa. A fixed concentration of 200 μM of each compound was selected for testing.
Briefly, Petri dishes (90 mm) were filled with 25 mL Muller-Hinton agar containing 1 mL bacterial culture (1×10^6 CFU/mL) and 200 μM of each compound. The strains were inoculated separately. Six holes (5 mm in diameter) were made in the seeded agar plates. The holes were then filled with 20 μL of each concentration of CPX, plate with CPX only was served as control. Dishes were then incubated for 24 h at 37° C. The MIC was recorded as the lowest concentration that inhibits the growth of the bacterial strains. […] All assays were performed in triplicate and MIC's values are given in μg/mL. The inhibition zone was measured using a caliper.
The agar plate diffusion test (Zou, He et al. 2019) was utilized to qualitatively evaluate the ciprofloxacin killing effect on MDR-Pa in absence (control) and in presence of our designed efflux pump inhibitors.

Pgp [2] = target: T1, Pgp (Homo sapiens, UniProt P08183); conditions: reported earlier (El-Araby, Omar et al. 2017); cited from earlier work
T1 construct: highly resistant cells K562 Adr500 which keep R123 outside the cancer cells; endogenous in cells; host or cells: K562 Adr500 (adriamycin-resistant human leukemia K562 cells)

MDR-Pa = experiment: Pseudomonas aeruginosa liquid killing assay on C. elegans (chemosensitization of MDR-Pa); assay type: in vivo; conditions: for Survival x/50 in presence of CAB compounds at 25 μM: 25 μM CAB compound + 100 μg/mL CPX; for Survival x/50 in presence of CAB compounds at 50 μM: 50 μM CAB compound + 100 μg/mL CPX; for Survival x/50 in presence of CAB compounds at 100 μM: 100 μM CAB compound + 100 μg/mL CPX; for Survival x/50 in presence of CAB compounds at 200 μM: 200 μM CAB compound + 100 μg/mL CPX; for Activity in C. elegans model (survival and motility), in words: MDR-Pa infected C. elegans with CPX; for C. elegans + 100 μg/mL CPX) MIC: MDR-Pa infected C. elegans, in presence of 100 μg/mL CPX
Procedure: In vivo EPI activity of compounds that illustrated an MIC against P. aeruginosa. ATCC 27853 were tested on C. elegans using the liquid killing assay (LKA). Briefly, eggs of C. elegans were hatched on lawns of E. coli OP50 on nematode growth medium agar. Worms were grown to L4 stage by incubation at 25° C. for 48 h. Worms were washed off the plate with M9 buffer, deposited onto lawns of E. coli OP50 or P. aeruginosa. ATCC 27853 and the plates were incubated at 25° C. for 16 h. OP50-fed or P. aeruginosa-infected worms were washed from the plate with M9 buffer, allowed to settle to bottom of Eppendorf tubes, and rinsed with M9 buffer. The M9 was then removed and worms were resuspended in 5 mL liquid killing medium (80% M9 and 20% nematode growth medium (NGMII)) and 95 μL aliquots with approximately 50 worms were added to the wells of 96-microtiter plates with or without test compounds at the indicated concentration ranges (starting from 200 μM) in presence of sub-MIC concentration of CPX (100 μg/mL). As a control, worms treated without test compound contained an equivalent amount of DMSO in the assay medium. Plates were scored for live worms at the time of inoculation and incubated at 37° C. for 24 h. Using a dissecting microscope, worms were considered dead if they appeared straight, and alive if they appeared S-shaped and were moving.
C. elegans is a very efficient whole organism test. The worm develops several reliable disease pathways and can be recruited to measure therapeutic activities of compounds. The technique bears several advantages such as low cost, there is no need for special growth or assay conditions (c.f. animal house and expensive caring for in vivo test on mammalians such as rats) (Kaletta and Hengartner 2006) and there are no ethical issues with consuming animals. In our particular assay, C. elegans can be infected and killed by Pa, and therefore, can be used for identifying compounds that help to protect the worm from pathogenic bacteria (Ewbank and Zugasti 2011).
We used the assay to measure the CAB N-alkyl derivatives CAB-30, CAB-35, CAB-36, CAB-37, CAB-38, CAB-40, CAB-41, CAB-42 and CAB-43 ability to protect C. elegans against MDR-Pa.

[3] = Solubility (qualitative statement); assay type: physicochemical; conditions: in words
Pgp [4] = target: T1, Pgp; experiment: Rhodamine123 (R123) efflux assay in K562 Adr500 cells; assay type: cell-based; conditions: in words
Procedure: The cells (10^5) were counted and suspended in 1 ml RPMI medium. The appropriate CAB derivative (0.5 μM) was added to the medium alongside 1, 5 or 10 μM WYE-354, or 100 μM Verapamil as control inhibitors and incubated for 60 min at 37° C. Upon dye uptake, the cells were pelleted by centrifugation at 250×g for 5 min at 4° C. in a cold centrifuge. The harvested cells were washed twice with 1× ice-cold PBS and resuspended in 1 ml RPMI with the inhibitors alone, and reincubated for an additional 60 min at 37° C. to allow the efflux of R123. The cells were subsequently washed twice with ice-cold PBS and analyzed immediately on a BD FACSAria III. A minimum of 5,000 events were recorded for analysis.
We studied the selectivity of CAB-38 by testing its Pgp inhibition (human efflux protein) activities. This assay was performed by measuring the retention of Rhodamine123 (R123) dye (substrate of Pgp) in human leukemia cell lines K562. The negative control of experiment is composed of highly resistant cells K562 Adr500 which keep R123 outside the cancer cells (FIG. 3A). The positive control is performed by repeating the same experiment after incubation of cells with everolimus sub-cytotoxic dose, a powerful Pgp inhibitor (FIG. 3B). The test compound was incubated with K562 Adr500 and then added R123 dye. […]

T1 sequence (P08183 whole entry): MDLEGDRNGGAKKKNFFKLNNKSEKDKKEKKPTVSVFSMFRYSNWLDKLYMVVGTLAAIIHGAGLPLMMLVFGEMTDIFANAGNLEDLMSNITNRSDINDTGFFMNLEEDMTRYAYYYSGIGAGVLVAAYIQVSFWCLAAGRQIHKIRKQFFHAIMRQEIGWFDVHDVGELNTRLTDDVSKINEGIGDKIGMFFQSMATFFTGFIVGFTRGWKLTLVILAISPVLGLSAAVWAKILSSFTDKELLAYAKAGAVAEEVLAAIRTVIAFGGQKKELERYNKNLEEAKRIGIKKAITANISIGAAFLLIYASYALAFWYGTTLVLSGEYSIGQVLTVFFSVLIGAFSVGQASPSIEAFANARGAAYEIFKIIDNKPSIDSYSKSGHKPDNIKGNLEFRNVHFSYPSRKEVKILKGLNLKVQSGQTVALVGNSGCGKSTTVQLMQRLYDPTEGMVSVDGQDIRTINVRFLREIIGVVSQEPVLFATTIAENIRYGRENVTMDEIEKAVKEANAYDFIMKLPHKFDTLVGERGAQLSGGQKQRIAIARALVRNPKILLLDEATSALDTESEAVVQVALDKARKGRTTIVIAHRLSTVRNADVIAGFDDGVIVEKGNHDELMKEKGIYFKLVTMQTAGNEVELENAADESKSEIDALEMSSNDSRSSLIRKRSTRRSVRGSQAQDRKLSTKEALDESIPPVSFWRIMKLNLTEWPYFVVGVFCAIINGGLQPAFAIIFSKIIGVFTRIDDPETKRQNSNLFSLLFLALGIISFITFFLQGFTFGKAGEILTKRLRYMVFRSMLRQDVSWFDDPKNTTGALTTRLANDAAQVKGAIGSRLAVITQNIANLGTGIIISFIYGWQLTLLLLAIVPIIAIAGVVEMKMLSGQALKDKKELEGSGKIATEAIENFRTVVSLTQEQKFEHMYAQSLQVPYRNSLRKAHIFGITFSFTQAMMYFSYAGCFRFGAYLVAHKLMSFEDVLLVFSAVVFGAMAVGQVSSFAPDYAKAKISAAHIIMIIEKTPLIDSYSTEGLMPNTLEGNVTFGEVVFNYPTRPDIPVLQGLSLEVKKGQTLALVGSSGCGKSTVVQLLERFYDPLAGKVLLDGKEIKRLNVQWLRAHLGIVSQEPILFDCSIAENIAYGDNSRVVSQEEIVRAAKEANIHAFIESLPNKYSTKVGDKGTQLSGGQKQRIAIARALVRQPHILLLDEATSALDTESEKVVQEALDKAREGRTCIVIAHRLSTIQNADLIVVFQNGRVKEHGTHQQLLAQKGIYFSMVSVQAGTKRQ

Structure (SMILES) | Enhancement of CPX antibiotic activity (chemosensitization, inhibition zone) [1] | Survival x/50 in presence of CAB compounds at 100 μM (MDR-Pa) | Survival x/50 in presence of CAB compounds at 200 μM (MDR-Pa) | C. elegans + 100 μg/mL CPX) MIC (MDR-Pa) | also measured
CCOC(=O)/C(=C/C=C/c1ccccc1)NC(=O)C=Cc1ccccc1 [CAB-21, Ethyl (2Z,4E)-2-Cinnamamido-5-Phenylpenta-2,4-Dienoate] | weak activities |  |  |  | 
CCCNC(=O)/C(=C/C=C/c1ccccc1)NC(=O)/C=C/c1ccccc1 [CAB-30] | highest chemosensitization; also recorded: most potent | 40 x/50 | 50 x/50 | 1.56 µM | Pgp inhibition activities (Pgp [2]): undesired Pgp inhibition activities; Survival x/50 in presence of CAB compounds at 1.562 μM (MDR-Pa; 1.562 μM CAB compound + 100 μg/mL CPX): 20 x/50; Survival x/50 in presence of CAB compounds at 3.125 μM (MDR-Pa; 3.125 μM CAB compound + 100 μg/mL CPX): 20 x/50; Survival x/50 in presence of CAB compounds at 6.25 μM (MDR-Pa; 6.25 μM CAB compound + 100 μg/mL CPX): 20 x/50; Survival x/50 in presence of CAB compounds at 12.5 μM (MDR-Pa; 12.5 μM CAB compound + 100 μg/mL CPX): 20 x/50; Survival x/50 in presence of CAB compounds at 25 μM (MDR-Pa): 40 x/50; Survival x/50 in presence of CAB compounds at 50 μM (MDR-Pa): 40 x/50; Activity in C. elegans model (survival and motility), in words (MDR-Pa): highly potent
COc1ccc(NC(=O)/C(=C/C=C/c2ccccc2)NC(=O)C=Cc2ccccc2)cc1 [CAB-32, (2Z,4E)-2-cinnamamido-N-(4-methoxyphenyl)-5-phenylpenta-2,4-dienamide] | weak activities |  |  |  | 
CNC(=O)/C(=C/C=C/c1ccccc1)NC(=O)C=Cc1ccccc1 [CAB-35, (2Z,4E)-2-cinnamamido-N-methyl-5-phenylpenta-2,4-dienamide] |  |  | 15 x/50 | 200 µM | 
N#Cc1cccc(NC(=O)/C(=C/C=C/c2ccccc2)NC(=O)C=Cc2ccccc2)c1 [CAB-36, (2Z,4E)-2-cinnamamido-N-(3-cyanophenyl)-5-phenylpenta-2,4-dienamide] | moderate chemosensitization activities |  |  | Died | Solubility [3]: poor solubility
O=C(C=Cc1ccccc1)N/C(=C\C=C\c1ccccc1)C(=O)NCCO [CAB-37, (2Z,4E)-2-cinnamamido-N-(2-hydroxyethyl)-5-phenylpenta-2,4-dienamide] |  |  |  | 50 µM | Activity in C. elegans model (survival and motility), in words (MDR-Pa): did not show any activity
O=C(C=Cc1ccccc1)N/C(=C\C=C\c1ccccc1)C(=O)N1CCOCC1 [CAB-38, N-((2Z,4E)-1-morpholino-1-oxo-5-phenylpenta-2,4-dien-2-yl)cinnamamide] |  | 10 x/50 | 40 x/50 | 25 µM | Pgp inhibition (retention of R123 dye in cells) (Pgp [4]): poor inhibitor of Pgp; also recorded: no inhibition observed; also recorded: not retention of R123 dye; Solubility [3]: improved solubility; Survival x/50 in presence of CAB compounds at 25 μM (MDR-Pa): 3 x/50; Survival x/50 in presence of CAB compounds at 50 μM (MDR-Pa): 5 x/50
COc1cccc(NC(=O)/C(=C/C=C/c2ccccc2)NC(=O)C=Cc2ccccc2)c1 [CAB-40, (2Z,4E)-2-cinnamamido-N-(3-methoxyphenyl)-5-phenylpenta-2,4-dienamide] | weak activities |  | 25 x/50 | 200 µM | 
O=C(C=Cc1ccccc1)N/C(=C\C=C\c1ccccc1)C(=O)N1CCCC1 [CAB-41, N-((2Z,4E)-1-oxo-5-phenyl-1-(pyrrolidin-1-yl)penta-2,4-dien-2-yl)cinnamamide] |  | 7 x/50 | 25 x/50 | 50 µM | Survival x/50 in presence of CAB compounds at 50 μM (MDR-Pa): 5 x/50
CCCCNC(=O)/C(=C/C=C/c1ccccc1)NC(=O)C=Cc1ccccc1 [CAB-42, (2Z,4E)-N-butyl-2-cinnamamido-5-phenylpenta-2,4-dienamide] |  | 5 x/50 | 45 x/50 | 100 µM | 
CC(C)NC(=O)/C(=C/C=C/c1ccccc1)NC(=O)C=Cc1ccccc1 [CAB-43, (2Z,4E)-2-cinnamamido-N-isopropyl-5-phenylpenta-2,4-dienamide] |  |  |  | Died | 
O=C(O)c1cn(C2CC2)c2cc(N3CCNCC3)c(F)cc2c1=O [Control (Cipro Only), ciprofloxacin, reference compound] |  |  |  | Died | 
CO[C@H]1C[C@@H]2CC[C@@H](C)[C@@](O)(O2)C(=O)C(=O)N2CCCC[C@H]2C(=O)O[C@H]([C@H](C)C[C@@H]2CC[C@@H](OCCO)[C@H](OC)C2)CC(=O)[C@H](C)/C=C(\C)[C@@H](O)[C@@H](OC)C(=O)[C@H](C)C[C@H](C)/C=C/C=C/C=C/1C [everolimus, reference compound] |  |  |  |  | Pgp inhibition (retention of R123 dye in cells) (Pgp [4]): large increase of R123 dye
